# Experimental data from paper PMC11394700, “Characterization of Stealth Liposome-Based Nanoparticles Encapsulating the ACAT1/SOAT1 Inhibitor F26: Efficacy and Toxicity Studies In Vitro and in Wild-Type Mice” (International Journal of Molecular Sciences, 2024).
# pIC50: −log10 of the molar value. Where “and” joins values, the source holds several entries; their conditions need not be identical. Equal entries are not always repeated. Where two headings read alike, the source gives them in different places.
# Columns and labels:
# [1] = WT mice, individual samples, cited from earlier work
# [2] = tested on: MEFs; experiment: XTT cytotoxicity assay in MEFs; assay type: cell-based, mouse; conditions: for Effect on cell viability (XTT): MEFs, concentrations below 50 µM, 24 h
# Description: (§1) An XTT cell proliferation assay kit (measures mitochondrial redox activity in metabolically active cells) was purchased from ATCC (Catalog No. 30-1011K, Manassas, VA, USA). Cell toxicity assessment was performed according to the manufacturer’s protocol. MEFs were seeded in a 96-well plate, 2500 cells per well, and cultured in full growth medium for 24 h. […] After the treatment, XTT reagent was added to each well, and the plates were incubated at 37 °C for 4 h. Following the incubation, absorbance was measured by using a BioTek Synergy Neo2 Hybrid Multimode Reader (BioTek, Winooski, VT, USA).
# [3] = tested on: human ACAT2; conditions: cited from earlier work
# [4] = tested on: primary mouse neuronal cells; conditions: concentrations up to 10 µM; cited from earlier work
# [5] = molecular target: T1, ACAT1 (Mus musculus, UniProt Q61263); experiment: ACAT activity by [3H] oleate pulse assay in MEFs; assay type: cell-based
# T1 construct: MEFs predominantly express ACAT1, not ACAT2; endogenous in cells; host or cells: mouse embryonic fibroblasts (MEFs)
# T1 sequence (Q61263 1-540): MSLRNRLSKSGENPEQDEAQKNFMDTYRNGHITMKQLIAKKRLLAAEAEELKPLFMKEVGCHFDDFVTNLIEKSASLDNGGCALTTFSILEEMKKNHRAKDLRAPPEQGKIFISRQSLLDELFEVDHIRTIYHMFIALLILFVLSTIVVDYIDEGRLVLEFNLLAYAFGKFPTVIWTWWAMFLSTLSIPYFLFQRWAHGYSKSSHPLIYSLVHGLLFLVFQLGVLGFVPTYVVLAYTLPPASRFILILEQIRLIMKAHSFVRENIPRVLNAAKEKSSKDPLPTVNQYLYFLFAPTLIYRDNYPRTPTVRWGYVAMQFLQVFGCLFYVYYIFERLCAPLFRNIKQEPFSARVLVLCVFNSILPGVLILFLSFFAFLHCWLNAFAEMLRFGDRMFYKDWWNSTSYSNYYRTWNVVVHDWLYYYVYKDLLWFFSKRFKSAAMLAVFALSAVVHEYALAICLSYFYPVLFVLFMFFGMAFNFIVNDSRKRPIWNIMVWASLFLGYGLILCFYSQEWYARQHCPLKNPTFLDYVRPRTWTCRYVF
# Description: The [^3H] oleate pulse assay was performed as described [76, 77]. […] For the washout assay, cells were washed and incubated with a conditioned drug-free medium for a given amount of time. After the incubation, cells were pulsed with 10 µL of 10 mM [^3H] oleate/BSA (containing 4 µCi) for 2 h in a 37 °C water bath with 5% CO2. At the end of the pulse period, cells were placed on ice, washed three times with cold PBS, and lysed with 0.2 M NaOH. Lysates were aliquoted first for protein measurement and the remaining extract was neutralized to pH 7.0 by adding 3 M HCl and 1 M KH2PO4 at pH 7. Lipids were then extracted with chloroform:methanol (2:1) and water. Samples were vortex-mixed and centrifuged at 500 rpm for 10 min. The top phase was removed, and the bottom phase was blow-dried by nitrogen gas. Dried samples were dissolved in ethyl acetate and spotted on a thin-layer chromatography (TLC) plate (Miles Scientific Silica gel HL, Catalog No. P46911). The solvent system used was petroleum ether:ethyl ether:acetic acid (90:10:1). The cholesteryl ester band with an Rf value at 0.9 was visualized by iodine staining, scraped from the plate, and measured with a scintillation counter.
# [6] = XTT cytotoxicity assay in MEFs; assay type: cell-based, mouse; conditions: mouse; MEFs, 150 µM, 24 h; read-out: Cell viability (XTT)
# Description: as §1
# [7] = tested on: rat liver microsomal ACAT; design: method as in earlier work; conditions: F26 = compound 3 in ref; cited from earlier work
# [8] = Plasma and brain pharmacokinetics after single IV dose (LC-MS/MS); assay type: in vivo, mouse; conditions: WT mice
# Description: After intravenous administration of F26, mice were perfused with PBS at scheduled time points. Plasma and brain tissue were collected, flash-frozen in liquid nitrogen, and stored at −80 °C until analysis. […] Calibrator and quality control (QC) samples were prepared in the appropriate C57BL/6 mouse matrix: pooled plasma (anticoagulant: K3-EDTA, Innovative Research) and brain homogenate. The brain tissues were homogenized at 0.1 g/mL in deionized water using stainless-steel beads and a Next Advance Bullet Blender. Samples were cleaned up and analytes were extracted using protein precipitation followed by nitrogen dry down and reconstitution. […] Samples were vortex-mixed for 5 min then centrifuged for 10 min at 21,130× g and a total of 200 µL of clear supernatant was transferred to new tubes and dried under nitrogen in a water bath at 45 °C. The dried residues were reconstituted in 80:20 methanol:water (plasma: 400 µL, brain: 200 µL), vortex-mixed for 15 s and centrifuged at 21,130× g for 5 min. Finally, 100 µL of supernatant was transferred to amber autosampler vials, and 2 µL was injected into the LC-MS/MS system. For the quantitative analysis, each sample was prepared in triplicate and each replicate was injected onto the LC-MS/MS system three times. Liquid chromatography was performed on a Thermo Scientific Vanquish Flex UHPLC system using buffers A = 0.1% formic acid in water and B = 0.1% formic acid in methanol. A Thermo Scientific Accucore C18 50 × 2.1 mm 2.6 µm column fitted with a 10 × 2.1 mm 2.6 µm C18 guard cartridge maintained at 40 °C was used. […] A Thermo Scientific TSQ Quantis triple quadrupole mass spectrometer was operated in positive ion mode with a collision pressure of 1.5 mTorr for quantification. […] The heated electrospray ionization (H-ESI) source was operated with a spray voltage of 3500 V, vaporizer temperature 400 °C, ion transfer tube temperature 300 °C, sheath gas 23, aux gas 12 and ion sweep gas 0.5 (gases are arbitrary units). The quantitative range for F26 was 0.5–500 ng/mL for plasma samples and 0.3–200 ng/mL for brain samples. QC samples were prepared at 1.5, 150, and 400 ng/mL for plasma and at 0.9, 80, and 150 ng/mL for brain.
# [9] = 4 h after single IV NP F12511 46 mg/kg
# [10] = 12 h after single IV NP F12511 46 mg/kg
# [11] = 24 h after single IV NP F12511 46 mg/kg
# [12] = 4 h after single IV NP F26 51 mg/kg, individual samples, 51 mg/kg
# [13] = 12 h after single IV NP F26 51 mg/kg, individual samples, 51 mg/kg
# [14] = 24 h after single IV NP F26 51 mg/kg, individual samples, 51 mg/kg
# [15] = 48 h after single IV NP F26 51 mg/kg, individual samples, 51 mg/kg
compound,measurement,setting,value
"CCCCCCCCCCCCS[C@H](C(=O)Nc1cc(C)c(O)c(C)c1C)c1ccccc1 [F12511, eflucimibe]",Brain Concentration,[1]; [9],56 ng/g and 83 ng/g and 98 ng/g and 95 ng/g
same,Plasma Concentration,[1]; [9],"11,185 ng/mL and 13,184 ng/mL and 12,883 ng/mL and 31,224 ng/mL"
same,Brain Concentration,[1]; [10],25 ng/g and 26 ng/g
same,Plasma Concentration,[1]; [10],345 ng/mL and 487 ng/mL
same,Brain Concentration,[1]; [11],7 ng/g and 9 ng/g
same,Plasma Concentration,[1]; [11],101 ng/mL and 21 ng/mL
same,Effect on cell viability (XTT),[2],neither F12511 nor F26 affected cell viability
same,pIC50,[3],6.96
same,Toxicity in primary mouse neuronal cells,[4],no detectable toxicity
CCCCCCCCCCCCS(=O)(=O)[C@](F)(C(=O)Nc1cc(C)c(O)c(C)c1C)c1ccccc1 [F26],pIC50,"[5]; [3H] oleate pulse assay, MEFs (predominantly ACAT1), read-out: IC50 against ACAT in MEFs",8.52
same,Potency as ACAT1 inhibitor compared to F12511 (fold),[5]; from IC50 values in MEFs,close to seven-fold
same,"viability at 24 h, 150 µM",[6],81%
same,Concentration required to induce cell toxicity relative to that for ACAT1 inhibition,[2]; 50 µM or higher vs IC50 in MEFs,over 1000 times
same,Effect on cell viability (XTT),[2],neither F12511 nor F26 affected cell viability
same,Potency for inhibiting rat liver microsomal ACAT,[7],more potent than F12511
same,Brain Concentration,[8]; [12],1148 ng/g
same,Brain-to-Plasma Ratio,[8]; [12],0.069
same,Plasma Concentration,[8]; [12],"16,540 ng/mL"
same,Brain Concentration,[8]; [13],529 ng/g
same,Brain-to-Plasma Ratio,[8]; [13],0.125
same,Plasma Concentration,[8]; [13],4243 ng/mL
same,Brain Concentration,[8]; [14],347 ng/g
same,Brain-to-Plasma Ratio,[8]; [14],0.283
same,Plasma Concentration,[8]; [14],3218 ng/mL and 1226 ng/mL
same,Brain Concentration,[8]; [15],86 ng/g
same,Brain-to-Plasma Ratio,[8]; [15],1.377
same,Plasma Concentration,[8]; [15],62 ng/mL
same,concentration at 4 h,"[8]; C57BL/6, mouse, brain, iv, 51 mg/kg, 4 h after single IV NP F26 51 mg/kg, individual samples, read-out: Brain Concentration",1120 ng/g
same,Kp at 4 h,"[8]; C57BL/6, mouse, brain, iv, 51 mg/kg, 4 h after single IV NP F26 51 mg/kg, individual samples, read-out: Brain-to-Plasma Ratio",0.061
same,concentration at 12 h,"[8]; C57BL/6, mouse, brain, iv, 51 mg/kg, 12 h after single IV NP F26 51 mg/kg, individual samples, read-out: Brain Concentration",671 ng/g
same,Kp at 12 h,"[8]; C57BL/6, mouse, brain, iv, 51 mg/kg, 12 h after single IV NP F26 51 mg/kg, individual samples, read-out: Brain-to-Plasma Ratio",0.147
same,concentration at 24 h,"[8]; C57BL/6, mouse, brain, iv, 51 mg/kg, 24 h after single IV NP F26 51 mg/kg, individual samples",571 ng/g
same,Kp at 24 h,"[8]; C57BL/6, mouse, brain, iv, 51 mg/kg, 24 h after single IV NP F26 51 mg/kg, individual samples, read-out: Brain-to-Plasma Ratio",0.178
same,concentration at 48 h,"[8]; C57BL/6, mouse, brain, iv, 51 mg/kg, 48 h after single IV NP F26 51 mg/kg, individual samples, read-out: Brain Concentration",59 ng/g
same,Kp at 48 h,"[8]; C57BL/6, mouse, brain, iv, 51 mg/kg, 48 h after single IV NP F26 51 mg/kg, individual samples, read-out: Brain-to-Plasma Ratio",1.6
same,Cmax,"[8]; C57BL/6, mouse, brain, single IV NP F26 51 mg/kg, read-out: Cmax in brain",1130 ng/g
same,half-life,"[8]; C57BL/6, mouse, brain, single IV NP F26 51 mg/kg, read-out: T1/2 in brain (converted)",10.5 h
same,Tmax,"[8]; C57BL/6, mouse, brain, single IV NP F26 51 mg/kg, read-out: Tmax in brain",4 h
same,concentration at 4 h,"[8]; C57BL/6, mouse, plasma, iv, 51 mg/kg, 4 h after single IV NP F26 51 mg/kg, individual samples, read-out: Plasma Concentration",18500 ng/mL
same,concentration at 12 h,"[8]; C57BL/6, mouse, plasma, iv, 51 mg/kg, 12 h after single IV NP F26 51 mg/kg, individual samples, read-out: Plasma Concentration",4570 ng/mL
same,concentration at 48 h,"[8]; C57BL/6, mouse, plasma, iv, 51 mg/kg, 48 h after single IV NP F26 51 mg/kg, individual samples, read-out: Plasma Concentration",37 ng/mL
same,Tmax,"[8]; C57BL/6, mouse, plasma, single IV NP F26 51 mg/kg, non-compartmental, n = 2, read-out: Tmax in plasma",4 h
same,AUC(0-t),"[8]; C57BL/6, mouse, plasma, single IV NP F26 51 mg/kg, read-out: AUClast in plasma",229 µg·h/mL
same,Cmax,"[8]; C57BL/6, mouse, plasma, single IV NP F26 51 mg/kg, read-out: Cmax in plasma",17500 ng/mL
same,half-life,"[8]; C57BL/6, mouse, plasma, single IV NP F26 51 mg/kg, read-out: T1/2 in plasma (converted)",4.75 h
same,AUClast in brain,[8]; single IV NP F26 51 mg/kg,"23,398.14 ng.h/g"
